According to paper PMC4254530 (Bioorganic & medicinal chemistry, 2014):
pIC50, pKi: −log10 of the molar value. “And” between values parts separate entries of the source, which are not always exact repeats. Identical values can stand only once. “Also recorded” adds a separate entry of the source. Like-named read-outs stand apart in the source and are kept apart here. Values belong to the molecule of their own block, whether it stands above or below them.

Key:
full length hCDK5/p25 = full length hCDK5/p25 (Homo sapiens, UniProt Q00535); test: γ-33P ATP filter binding assay, hCDK5/p25; assay type: biochemical; conditions: for pIC50: CDK5/p25 IC50, ATP (Km) 30 μM; for preference CDK5/p25 versus CDK2/E (in words): comparison of the two kinase assays
Sequence of full length hCDK5/p25 (Q00535 whole entry): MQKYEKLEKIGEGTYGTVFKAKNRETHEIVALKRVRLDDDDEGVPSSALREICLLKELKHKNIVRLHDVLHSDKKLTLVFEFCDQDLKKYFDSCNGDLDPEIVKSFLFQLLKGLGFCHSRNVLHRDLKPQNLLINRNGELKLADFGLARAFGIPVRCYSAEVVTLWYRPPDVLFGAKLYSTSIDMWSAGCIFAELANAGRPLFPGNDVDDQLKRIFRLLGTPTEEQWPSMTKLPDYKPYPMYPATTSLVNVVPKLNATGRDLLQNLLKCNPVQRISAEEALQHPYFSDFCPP
Sequence of full length hCDK5/p25 (Q15078 99-307 partner limits assumed): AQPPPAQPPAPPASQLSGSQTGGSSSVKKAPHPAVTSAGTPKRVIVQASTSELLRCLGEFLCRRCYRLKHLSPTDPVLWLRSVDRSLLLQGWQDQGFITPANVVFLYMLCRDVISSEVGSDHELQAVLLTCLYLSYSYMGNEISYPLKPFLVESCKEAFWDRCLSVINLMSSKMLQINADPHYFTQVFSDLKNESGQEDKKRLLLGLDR

CDK5/p25 = CDK5/p25 (Homo sapiens, UniProt Q00535); test: ATP competitive binding assay; assay type: biochemical; conditions: IC50 at increasing ATP concentrations, Lineweaver-Burk plot
Sequence of CDK5/p25 (Q00535 whole entry): as the sequence (Q00535 whole entry) above
Sequence of CDK5/p25 (Q15078 99-307 partner limits assumed): as the sequence (Q15078 99-307 partner limits assumed) above

full length hCDK2/E = full length hCDK2/E (Homo sapiens, UniProt P24941); test: γ-33P ATP filter binding assay, hCDK2/E; conditions: for pIC50: CDK2/E IC50, ATP (Km) 65 μM; for CDK2/E inhibition @50μM: 50 μM compound, ATP (Km) 65 μM
CDK1/B = CDK1/B (Homo sapiens, UniProt P06493); test: Kinase selectivity assay CDK1/B; assay type: biochemical
CDK2/A = CDK2/A (Homo sapiens, UniProt P24941); test: Kinase selectivity assay CDK2/A; assay type: biochemical; conditions: read-out: CDK2/A % inhibition at 20 μM
CDK2/E = CDK2/E (Homo sapiens, UniProt P24941); test: Kinase selectivity assay CDK2/E; assay type: biochemical; conditions: read-out: CDK2/E % inhibition at 20 μM
CDK4/D1 = CDK4/D1 (Homo sapiens, UniProt P11802); test: Kinase selectivity assay CDK4/D1; assay type: biochemical; conditions: 20 μM compound, ATP Km 90 μM
CDK6/D1 = CDK6/D1 (Homo sapiens, UniProt Q00534); test: Kinase selectivity assay CDK6/D1; assay type: biochemical; conditions: 20 μM compound, ATP Km 30 μM
Sequence of CDK6/D1 (Q00534 whole entry): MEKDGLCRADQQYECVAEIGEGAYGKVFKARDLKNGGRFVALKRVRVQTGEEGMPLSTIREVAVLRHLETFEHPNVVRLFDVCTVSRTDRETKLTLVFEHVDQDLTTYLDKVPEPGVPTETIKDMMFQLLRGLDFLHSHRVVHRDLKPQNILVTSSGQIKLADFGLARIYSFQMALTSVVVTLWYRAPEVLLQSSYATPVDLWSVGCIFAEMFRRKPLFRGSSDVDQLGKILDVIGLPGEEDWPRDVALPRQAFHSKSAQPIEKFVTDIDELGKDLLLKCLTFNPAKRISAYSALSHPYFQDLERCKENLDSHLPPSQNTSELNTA
Sequence of CDK6/D1 (P24385 whole entry partner): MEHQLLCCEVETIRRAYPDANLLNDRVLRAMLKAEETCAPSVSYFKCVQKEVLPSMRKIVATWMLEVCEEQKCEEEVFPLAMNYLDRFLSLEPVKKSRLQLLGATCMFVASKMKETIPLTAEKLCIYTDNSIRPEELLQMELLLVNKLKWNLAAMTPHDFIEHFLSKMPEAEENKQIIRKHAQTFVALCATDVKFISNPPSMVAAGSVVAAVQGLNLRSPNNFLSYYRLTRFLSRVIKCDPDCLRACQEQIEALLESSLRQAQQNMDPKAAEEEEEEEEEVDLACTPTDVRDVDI

CK1a1 = CK1a1 (Homo sapiens, UniProt P48729); test: Kinase selectivity assay CK1a1; assay type: biochemical; conditions: read-out: CK1a1 % inhibition at 20 μM
Sequence of CK1a1 (P48729 whole entry): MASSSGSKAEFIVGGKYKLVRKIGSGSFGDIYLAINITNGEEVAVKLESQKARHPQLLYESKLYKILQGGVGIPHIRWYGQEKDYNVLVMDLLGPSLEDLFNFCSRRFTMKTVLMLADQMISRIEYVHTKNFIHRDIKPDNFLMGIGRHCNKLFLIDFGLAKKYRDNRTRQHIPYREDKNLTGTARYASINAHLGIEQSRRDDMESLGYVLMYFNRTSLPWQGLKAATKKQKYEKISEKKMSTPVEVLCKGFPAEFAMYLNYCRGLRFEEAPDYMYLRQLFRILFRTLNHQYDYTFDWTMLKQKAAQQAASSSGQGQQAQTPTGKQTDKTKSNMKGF

DYRK1/DYRK1A = DYRK1/DYRK1A (Homo sapiens, UniProt Q13627); test: Kinase selectivity assay DYRK1/DYRK1A; assay type: biochemical; conditions: read-out: DYRK1/DYRK1A % inhibition at 20 μM
GSK3α = GSK3α (Homo sapiens, UniProt P49840); test: Kinase selectivity assay GSK3α; assay type: biochemical; conditions: read-out: GSK3α % inhibition at 20 μM
Sequence of GSK3α (P49840 whole entry): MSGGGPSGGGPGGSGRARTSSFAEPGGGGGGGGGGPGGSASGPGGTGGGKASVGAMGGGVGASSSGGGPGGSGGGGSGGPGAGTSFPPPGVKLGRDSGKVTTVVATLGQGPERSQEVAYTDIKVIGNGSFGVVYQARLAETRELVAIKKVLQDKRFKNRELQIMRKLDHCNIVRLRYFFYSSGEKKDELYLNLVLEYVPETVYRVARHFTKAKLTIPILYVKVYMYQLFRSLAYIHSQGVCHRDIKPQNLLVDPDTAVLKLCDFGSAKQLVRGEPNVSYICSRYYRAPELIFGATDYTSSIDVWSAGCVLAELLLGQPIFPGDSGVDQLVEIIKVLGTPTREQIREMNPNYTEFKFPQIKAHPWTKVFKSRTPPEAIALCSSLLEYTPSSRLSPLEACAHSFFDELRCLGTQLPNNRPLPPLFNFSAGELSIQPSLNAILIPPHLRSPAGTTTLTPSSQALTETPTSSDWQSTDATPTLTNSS

GSK3β = GSK3β (Homo sapiens, UniProt P49841); test: Kinase selectivity assay GSK3β; assay type: biochemical; conditions: read-out: GSK3β % inhibition at 20 μM
Sequence of GSK3β (P49841 whole entry): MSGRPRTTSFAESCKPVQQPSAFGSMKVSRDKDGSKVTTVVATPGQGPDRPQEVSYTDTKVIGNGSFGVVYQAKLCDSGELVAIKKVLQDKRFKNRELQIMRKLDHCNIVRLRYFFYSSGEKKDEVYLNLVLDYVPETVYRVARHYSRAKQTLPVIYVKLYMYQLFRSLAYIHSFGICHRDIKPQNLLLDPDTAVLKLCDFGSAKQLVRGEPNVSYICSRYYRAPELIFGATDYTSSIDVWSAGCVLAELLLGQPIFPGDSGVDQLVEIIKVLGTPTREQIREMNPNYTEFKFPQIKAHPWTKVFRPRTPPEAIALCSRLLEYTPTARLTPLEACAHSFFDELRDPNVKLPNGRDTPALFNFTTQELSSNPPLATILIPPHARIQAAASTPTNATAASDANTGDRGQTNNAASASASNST

KDR/VEGFR2 = KDR/VEGFR2 (Homo sapiens, UniProt P35968); test: Kinase selectivity assay KDR/VEGFR2; assay type: biochemical; conditions: read-out: KDR/VEGFR2 % inhibition at 20 μM
Sequence of KDR/VEGFR2 (P35968 20-1356): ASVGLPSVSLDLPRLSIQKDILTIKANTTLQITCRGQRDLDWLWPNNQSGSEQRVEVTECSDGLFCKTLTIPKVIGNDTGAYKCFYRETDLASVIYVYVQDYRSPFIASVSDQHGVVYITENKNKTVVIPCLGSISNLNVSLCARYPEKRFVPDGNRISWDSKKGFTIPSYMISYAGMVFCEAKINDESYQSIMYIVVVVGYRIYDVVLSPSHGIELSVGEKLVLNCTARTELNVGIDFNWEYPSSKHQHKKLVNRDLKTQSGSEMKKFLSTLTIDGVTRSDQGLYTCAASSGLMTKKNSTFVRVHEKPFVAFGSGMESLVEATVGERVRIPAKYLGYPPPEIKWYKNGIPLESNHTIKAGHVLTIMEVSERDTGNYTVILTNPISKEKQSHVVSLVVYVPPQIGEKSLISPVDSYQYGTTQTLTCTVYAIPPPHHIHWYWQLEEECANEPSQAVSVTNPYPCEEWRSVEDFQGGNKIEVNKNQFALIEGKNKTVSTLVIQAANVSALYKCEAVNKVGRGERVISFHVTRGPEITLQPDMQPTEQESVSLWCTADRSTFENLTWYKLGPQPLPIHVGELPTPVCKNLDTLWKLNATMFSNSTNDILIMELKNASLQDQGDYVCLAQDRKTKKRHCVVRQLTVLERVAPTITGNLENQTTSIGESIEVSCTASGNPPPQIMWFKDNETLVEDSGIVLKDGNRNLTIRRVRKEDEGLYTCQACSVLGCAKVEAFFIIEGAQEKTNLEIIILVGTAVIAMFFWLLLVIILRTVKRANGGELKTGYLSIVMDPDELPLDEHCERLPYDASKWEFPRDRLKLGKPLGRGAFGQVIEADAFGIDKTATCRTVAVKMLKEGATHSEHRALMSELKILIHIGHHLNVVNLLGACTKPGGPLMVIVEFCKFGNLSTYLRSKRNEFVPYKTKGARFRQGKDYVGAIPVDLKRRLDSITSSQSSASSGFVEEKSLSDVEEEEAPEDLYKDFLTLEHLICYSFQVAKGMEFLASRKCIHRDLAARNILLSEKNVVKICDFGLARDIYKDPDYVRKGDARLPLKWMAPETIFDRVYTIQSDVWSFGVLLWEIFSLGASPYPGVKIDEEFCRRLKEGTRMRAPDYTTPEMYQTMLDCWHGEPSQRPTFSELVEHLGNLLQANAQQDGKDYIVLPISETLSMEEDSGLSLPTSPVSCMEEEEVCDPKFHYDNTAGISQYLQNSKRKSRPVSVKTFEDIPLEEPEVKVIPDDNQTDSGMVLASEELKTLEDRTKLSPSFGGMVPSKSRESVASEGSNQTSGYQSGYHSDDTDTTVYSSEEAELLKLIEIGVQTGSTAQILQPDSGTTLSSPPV

PKA = PKA (Homo sapiens, UniProt P17612); test: Kinase selectivity assay PKA; assay type: biochemical
PKCα = PKCα (Homo sapiens, UniProt P17252); test: Kinase selectivity assay PKCα; assay type: biochemical
PKCε = target: T1, PKCε (Homo sapiens, UniProt Q02156); test: Kinase selectivity assay PKCε; assay type: biochemical; conditions: read-out: PKCε % inhibition at 20 μM
T1 sequence (Q02156 1-737): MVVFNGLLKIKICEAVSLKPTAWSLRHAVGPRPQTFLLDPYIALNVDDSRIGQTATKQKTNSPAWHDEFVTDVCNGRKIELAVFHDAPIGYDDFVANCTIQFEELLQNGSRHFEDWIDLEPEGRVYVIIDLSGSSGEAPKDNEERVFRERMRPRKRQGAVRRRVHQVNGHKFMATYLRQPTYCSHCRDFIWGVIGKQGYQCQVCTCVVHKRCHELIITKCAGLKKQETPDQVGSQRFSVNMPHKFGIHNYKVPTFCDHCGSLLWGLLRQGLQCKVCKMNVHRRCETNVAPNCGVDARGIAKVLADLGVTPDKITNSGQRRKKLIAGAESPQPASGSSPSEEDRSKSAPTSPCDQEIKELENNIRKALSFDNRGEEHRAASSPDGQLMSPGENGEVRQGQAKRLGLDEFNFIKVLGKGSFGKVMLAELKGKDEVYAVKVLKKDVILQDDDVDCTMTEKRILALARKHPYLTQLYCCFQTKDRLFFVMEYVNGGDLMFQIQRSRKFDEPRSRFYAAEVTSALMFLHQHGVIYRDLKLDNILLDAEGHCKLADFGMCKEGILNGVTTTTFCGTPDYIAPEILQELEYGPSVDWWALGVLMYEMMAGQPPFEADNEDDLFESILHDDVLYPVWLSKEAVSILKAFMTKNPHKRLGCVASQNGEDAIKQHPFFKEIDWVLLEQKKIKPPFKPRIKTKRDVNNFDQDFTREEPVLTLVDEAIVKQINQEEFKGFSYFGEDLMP

WEE1 = WEE1 (Homo sapiens, UniProt P30291); test: Kinase selectivity assay WEE1; assay type: biochemical
[1] = read-out: CDK5/p25 % inhibition @ 50 μM
[2] = read-out: CDK2/E % inhibition @ 50 μM, 50 μM compound, 10 μM ATP
[3] = read-out: CDK5/p25 inhibition @50μM
[4] = read-out: CDK2/E inhibition @50μM, 50 μM compound, ATP (Km) 65 μM, Table 5

SMILES: Cc1ccc(NC(=O)c2cc3c(=O)[nH]c4ccccc4c3s2)nc1 [Compound 10, N-(5-methylpyridin-2-yl)-4-oxo-4,5-dihydrothieno[3,2-c]quinoline-2-carboxamide]
pKi (full length hCDK5/p25): 5.47
pIC50 (full length hCDK5/p25; Table 4): 5.15
ligand efficiency (LE) (full length hCDK5/p25; calculated from CDK5/p25 potency): 0.3
preference CDK5/p25 versus CDK2/E (in words) (full length hCDK5/p25): CDK5/p25 selectivity
inhibition at 50 µM (full length hCDK5/p25; [1]): 88.2%
mode of inhibition with respect to ATP (CDK5/p25): ATP non-competitive; also recorded: non-competitive inhibition
pIC50 (full length hCDK2/E; Table 4): 4.60 and 4.59
inhibition at 50 µM (full length hCDK2/E; [2]): 77%

SMILES: O=C(O)c1cc2c(=O)[nH]c3ccccc3c2s1 [Compound 14, 4-oxo-4,5-dihydrothieno[3,2-c]quinoline-2-carboxylic acid]
CDK5/p25 activity (in words) (full length hCDK5/p25): active
pIC50 (full length hCDK5/p25; Table 4): 4.28
preference CDK5/p25 versus CDK2/E (in words) (full length hCDK5/p25): CDK5/p25 selectivity
inhibition at 50 µM (full length hCDK5/p25; [1]): 64.8%
mode of inhibition with respect to ATP (CDK5/p25): competitive inhibition
inhibition at 50 µM (full length hCDK2/E; [2]): 23.5%
inhibition at 50 µM (full length hCDK2/E; read-out: CDK2/E % inhibition, 50 μM compound, ATP Km concentration): 14%

SMILES: O=C(Nc1ccccc1C(=O)O)c1cc2c(=O)[nH]c3ccccc3c2s1 [Compound 25s, 2-(4-oxo-4,5-dihydrothieno[3,2-c]quinoline-2-carboxamido)benzoic acid]
pIC50 (full length hCDK5/p25; Table 5): 5.37
inhibition at 50 µM (full length hCDK5/p25; [3]): 70.6%
mode of inhibition with respect to ATP (CDK5/p25): ATP non-competitive inhibition
CDK1/B % inhibition at 20 μM (CDK1/B; 20 μM compound, ATP Km 5 μM): No inhibition
inhibition at 20 µM (CDK2/A): 50%
inhibition at 20 µM (CDK2/E): 5%
CDK4/D1 % inhibition at 20 μM (CDK4/D1): No inhibition
CDK6/D1 % inhibition at 20 μM (CDK6/D1): No inhibition
inhibition at 20 µM (CK1a1): 41%
inhibition at 20 µM (DYRK1/DYRK1A): 23%
inhibition at 20 µM (GSK3α): 79%
inhibition at 20 µM (GSK3β): 81%
inhibition at 20 µM (KDR/VEGFR2): 88%
inhibition at 20 µM (PKA; read-out: PKA % inhibition at 20 μM): 89%
PKCα % inhibition at 20 μM (PKCα; 20 μM compound, ATP Km 10 μM): No inhibition
inhibition at 20 µM (PKCε): 7%
WEE1 % inhibition at 20 μM (WEE1; 20 μM compound, ATP Km 50 μM): No inhibition
CDK2/E inhibition @50μM (full length hCDK2/E; Table 5): No inhibition

SMILES: O=C(Nc1ccccn1)c1cc2c(=O)[nH]c3ccccc3c2s1 [Compound 25v, 4-Oxo-N-(pyridin-2-yl)-4,5-dihydrothieno[3,2-c]quinoline-2-carboxamide]
pIC50 (full length hCDK5/p25; Table 5): 5.37
inhibition at 50 µM (full length hCDK5/p25; [3]): 89.9%
pIC50 (full length hCDK2/E; Table 5): 5.00
inhibition at 50 µM (full length hCDK2/E; [4]): 86%

SMILES: O=C(Nc1ccccn1)c1cc2c(Cl)nc3ccccc3c2s1 [Compound 25w, 4-chloro-N-(pyridin-2-yl)thieno[3,2-c]quinoline-2-carboxamide]
pIC50 (full length hCDK5/p25; Table 5): 5.42
inhibition at 50 µM (full length hCDK5/p25; [3]): 75.4%
mode of inhibition with respect to ATP (CDK5/p25): ATP non-competitive inhibition
inhibition at 20 µM (CDK1/B; read-out: CDK1/B % inhibition at 20 μM): 35%
inhibition at 20 µM (CDK2/A): 45%
inhibition at 20 µM (CDK2/E): 6%
CDK4/D1 % inhibition at 20 μM (CDK4/D1): No inhibition
CDK6/D1 % inhibition at 20 μM (CDK6/D1): No inhibition
inhibition at 20 µM (CK1a1): 19%
inhibition at 20 µM (DYRK1/DYRK1A): 4%
inhibition at 20 µM (GSK3α): 22%
inhibition at 20 µM (GSK3β): 41%
inhibition at 20 µM (KDR/VEGFR2): 44%
PKA % inhibition at 20 μM (PKA; 20 μM compound, ATP Km 20 μM): No inhibition
inhibition at 20 µM (PKCα; read-out: PKCα % inhibition at 20 μM): 1%
inhibition at 20 µM (PKCε): 4%
inhibition at 20 µM (WEE1; read-out: WEE1 % inhibition at 20 μM): 2%
inhibition at 50 µM (full length hCDK2/E; [4]): 21.8%

SMILES: O=C(Nc1cccnc1)c1cc2c(=O)[nH]c3ccccc3c2s1 [Compound 25x, 4-oxo-N-(pyridin-3-yl)-4,5-dihydrothieno[3,2-c]quinoline-2-carboxamide]
pIC50 (full length hCDK5/p25; Table 5): 4.97
inhibition at 50 µM (full length hCDK5/p25; [3]): 80.7%
inhibition at 50 µM (full length hCDK2/E; [4]): 36.7%

Continued, values first:

pIC50 (full length hCDK5/p25; Table 5): 5.52
inhibition at 50 µM (full length hCDK5/p25; [3]): 89.9%
pIC50 (full length hCDK2/E; Table 5): 4.59
inhibition at 50 µM (full length hCDK2/E; [4]): 74.8%
SMILES: COC(=O)c1ccccc1NC(=O)c1cc2c(=O)[nH]c3ccccc3c2s1 [Compound 25r, Methyl 2-(4-oxo-4,5-dihydrothieno[3,2-c]quinoline-2-carboxamido)benzoate]

pIC50 (full length hCDK5/p25; Table 5): 5.80
inhibition at 50 µM (full length hCDK5/p25; [3]): 93.6%
pIC50 (full length hCDK2/E; Table 5): 5.20
inhibition at 50 µM (full length hCDK2/E; [4]): 97%
SMILES: COC(=O)c1cccc(NC(=O)c2cc3c(=O)[nH]c4ccccc4c3s2)c1 [Compound 25t, Methyl 3-(4-oxo-4,5-dihydrothieno[3,2-c]quinoline-2-carboxamido)benzoate]

inhibition at 50 µM (full length hCDK5/p25; [3]): 27.4%
CDK2/E inhibition @50μM (full length hCDK2/E; Table 5): No inhibition
SMILES: O=C(O)c1cccc(NC(=O)c2cc3c(=O)[nH]c4ccccc4c3s2)c1 [Compound 25u, 3-(4-oxo-4,5-dihydrothieno[3,2-c]quinoline-2-carboxamido)benzoic acid]
